Experimental findings from ChEMBL document CHEMBL2321746, “Cloning, characterization, and sulfonamide and thiol inhibition studies of an α-carbonic anhydrase from Trypanosoma cruzi, the causative agent of Chagas disease” (J Med Chem, 2013) are described below.

SMILES strings stand for the structures.

What all share (assay type): functional
In test [1] the test system is Trypanosoma cruzi. The test is described as follows: Antitrypanosomal activity against Trypanosoma cruzi DM28 epimastigotes at 256 uM incubated for 48 hrs by resazurin dye reduction based ELISA method. The conditions noted are these: DM28, 48 h.
The subject of test [2] is Trypanosoma cruzi. The test is described as follows: Antitrypanosomal activity against Trypanosoma cruzi Y epimastigotes at 128 uM incubated for 48 hrs by resazurin dye reduction based ELISA method. A general note: Alamar Blue is a resazurin reagent that responds to reducing activity.
Test [3] relates to Trypanosoma cruzi. Briefly: Antitrypanosomal activity against Trypanosoma cruzi Y epimastigotes at 256 uM incubated for 48 hrs by resazurin dye reduction based ELISA method.
Test [4] concerns Trypanosoma cruzi. The test is described as follows: Antitrypanosomal activity against Trypanosoma cruzi Y epimastigotes at 64 uM incubated for 48 hrs by resazurin dye reduction based ELISA method.
Test [5] deals with Trypanosoma cruzi. Briefly: Antitrypanosomal activity against Trypanosoma cruzi Y epimastigotes at 16 uM incubated for 48 hrs by resazurin dye reduction based ELISA method.
In test [6] the test system is Trypanosoma cruzi. The test is described as follows: Antitrypanosomal activity against Trypanosoma cruzi Y epimastigotes at 8 uM incubated for 48 hrs by resazurin dye reduction based ELISA method.
For test [7], the system named is Trypanosoma cruzi. Briefly: Antitrypanosomal activity against Trypanosoma cruzi Y epimastigotes at 32 uM incubated for 48 hrs by resazurin dye reduction based ELISA method.
In test [8] the test system is Trypanosoma cruzi. Briefly: Antitrypanosomal activity against Trypanosoma cruzi DM28 epimastigotes at 128 uM incubated for 48 hrs by resazurin dye reduction based ELISA method. As to conditions: DM28, 48 h.

For the compound `COc1cccc(/C=N\NC(=O)Nc2nnc(S)s2)c1`, the inhibition (as a rule, the drop in the measured response relative to a control, in per cent) at 256 µM amounted to 43% in the test on Trypanosoma cruzi [1] and 77% in the test with Trypanosoma cruzi [3]. The inhibition at 128 µM in the test with Trypanosoma cruzi [2] was determined as 44%.
As for `O=C(N/N=C1\C(=O)Nc2ccccc21)Nc1n[nH]c(=S)s1`, the inhibition at 256 µM was 9% in the test on Trypanosoma cruzi [1] and 30% in the test on Trypanosoma cruzi [3].
Consider `O=C(Cn1ccnc1[N+](=O)[O-])NCc1ccccc1` [BENZNIDAZOLE], for which the inhibition at 128 µM in the test with Trypanosoma cruzi [2] stood at 80%. The compound further showed an inhibition at 64 µM in the test on Trypanosoma cruzi [4] of 75%. In the test with Trypanosoma cruzi [5], this compound showed an inhibition at 16 µM of 66%. At 8 µM the inhibition with Trypanosoma cruzi [6] was 51%. This compound also registered an inhibition at 256 µM in the test on Trypanosoma cruzi [3] of 91%. This compound showed an inhibition at 32 µM in the test with Trypanosoma cruzi [7] of 60%.
Regarding `O=C(N/N=C\c1cccc(Br)c1)Nc1nnc(S)s1`, the inhibition at 256 µM in the test on Trypanosoma cruzi [1] was 34%; with Trypanosoma cruzi [3], 58%.
For `O=C(N/N=C1\C(=O)Nc2ccc(Br)cc21)Nc1n[nH]c(=S)s1`, the inhibition at 256 µM in the test on Trypanosoma cruzi [1] is 22%; in the test with Trypanosoma cruzi [3], 20%.
In the case of `O=C(N/N=C\c1ccccc1)Nc1nnc(S)s1`, the inhibition at 256 µM in the test with Trypanosoma cruzi [1] and in the test on Trypanosoma cruzi [3] was 87% each time. The inhibition at 128 µM amounted to 84% with Trypanosoma cruzi [2] and 43% in the test with Trypanosoma cruzi [8]. This compound also yielded an inhibition at 64 µM in the test on Trypanosoma cruzi [4] of 64%.
For the compound `C/C(=N/NC(=O)Nc1nnc(S)s1)c1ccc(Cl)cc1`, the inhibition at 256 µM came out at 0% in the test with Trypanosoma cruzi [1] and 32% in the test with Trypanosoma cruzi [3].
Turning to `O=C(N/N=C\c1ccc(Cl)cc1)Nc1nnc(S)s1`, the values for the inhibition at 256 µM with Trypanosoma cruzi [1] and in the test on Trypanosoma cruzi [3] were 10% and 67%, respectively. Moreover, the inhibition at 128 µM in the test on Trypanosoma cruzi [2] stood at 51%.
For the compound `C/C(CC(C)C)=N/NC(=O)Nc1nnc(S)s1`, the inhibition at 256 µM in the test on Trypanosoma cruzi [1] is 20%; with Trypanosoma cruzi [3] it was 43%.
